{"source": "patent US10537575B2", "about": "“Phosphodiesterase inhibitors to repair brain and/or retinal injury in human newborns” (priority 2016, dated 2020)", "key": {"[1]": {"test": "Body weight and animal deaths in Vannucci rat model of term neonatal HIE", "experimental": "A well-established Vannucci rat model of term neonatal HIE, which combined a left common carotid artery ligation and a 2 hour exposure to hypoxia (8% oxygen) in 10-day-old (P10) rat pups, was used for the experiments, since this model is generally recognized to mimic the brain injuries observed in human term asphyxiated newborns. Briefly, the 10-day-old male Long-Evans rat pups were weighed and then deeply anesthetized with an intraperitoneal injection of fentanyl (0.2 mg/kg) and midazolam (1 mg/kg) to the point of unresponsiveness to noxious stimulation. Lidocaine-prilocaine cream (EMLA®; AstraZeneca Inc.) was applied to the ventral neck skin 30 minutes before surgery. The skin was cleaned with 2% chlorhexidine solution followed by 70% alcohol. A vertical incision was made along the ventral surface of the neck. The left common carotid artery was located, isolated, and then ligated with a single tight suture. Following the unilateral ligation, the skin incision was closed with an adhesive (n-butyl cyanoacrylate; 3 M VetBond Tissue Adhesive®; 3 M USA). The anesthesia was reversed with an intraperitoneal injection of naloxone (0.1 mg/kg) and flumazenil (1 mg/kg). […] For each rat pup, anesthesia time and surgical time were kept to a minimal time of less than 5-10 minutes. The pups were allowed to recover for approximately 1.5 h after surgery and then were placed in a sealed hypoxia chamber (Plastic Concepts, North Billerica, USA). The sealed chamber was infused with nitrogen until a level of 8% oxygen was reached, which was maintained for 2 h (oxygen analyzer model 600, Engineered Systems & Designs, Newark, Del.). The pups were allowed to recover for 30 minutes and then were returned to their cages with the mother. The rats undergoing the whole procedure were considered as the hypoxic-ischemic (HI) group (n=10-12 animals/groups). Sham operated rat pups (identical procedure as the HI group, but not the ligation and hypoxia) served as the control group (n=10-12 animals/groups). The sample size of the current study was a sample size of convenience, subject to restrictions imposed by the institutional ethics committee that reviewed it, and based on the principles of the 3Rs (replacement, reduction, and refinement). Sham rat pups received the same sedation as HI rat pups permitting to control for the effect of sedation on the brain. Normal body temperature of both sham and HI rat pups, while they were separated from the mother, was maintained during the whole procedure (i.e., surgery±hypoxia) using warming blankets (Cincinnati Sub-Zero, Cincinnati, USA)."}, "[2]": {"tested_on": "Long-Evans rat pups (term neonatal HIE model)", "test": "Endothelial cells count (lectin staining) at P30", "format": "in vivo", "conditions": "HI, not significant", "experimental": "Using the third slide prepared for each animal, an immunohistochemistry was used to assess the endothelial cells count. Sections were labeled with lectin (biotinylated isolectin B4) (Sigma-Aldrich: L2140, St-Louis, Mo., USA) (dilution 20 μg/mL in 0.1M tris-buffered saline [pH 7.4] and 0.5% Triton X-100, incubation time 2 hours at room temperature) (Springer M L et al., 2010). To detect lectin binding, the sections were incubated with streptavidin Alexa Fluor® 350 conjugate (Molecular Probes®, Life Technologies: S11249, Carlsbad, Calif., USA) dilution 1:300 in tris-buffered saline, incubation time 2 hours at room temperature (Ndode-Ekane X E et al., 2010). Then, these sections were rinsed with tris-buffered saline and cover slipped with Vectashield Mounting media containing 4,6-diamidino-2-phenylindole (DAPI) (Vector Laboratories: H1200, Burlingame, Calif., USA) to visualize cell nuclei (Ndode-Ekane X E et al., 2010; Hallene K L et al., 2006). The endothelial cells count was assessed as per previously described methods (Hallene K L et al., 2006, Iwai M et al., 2007; Noguchi T et al., 2008; Rigau V et al., 2007; Wintermark P et al., 2013). Cells co-labeled with lectin and DAPI were identified as endothelial cells (Springer M L et al., 2010; Hallene K L et al., 2006). To estimate the density of microvessels, single immunoreactive endothelial cells were counted as individual microvessels; endothelial staining in large vessels with tunica media were disregarded in the microvessel counts (Hallene K L et al., 2006, Iwai M et al., 2007; Noguchi T et al., 2008; Rigau V et al., 2007; Wintermark P et al., 2013; Shaikh H et al., 2015). […] One investigator took pictures of the respective fields of view at 10× magnification."}, "[3]": {"tested_on": "Sprague-Dawley rats (rat model of ROP)", "test": "Retinal layer thickness in rat model of ROP (hyperoxia)", "format": "in vivo", "conditions": "ROP animals; sildenafil 50 mg/kg per os twice daily P15 to P21; P31; p<0.05", "experimental": "Sprague-Dawley rats were exposed to hyperoxia (i.e., 80% oxygen) interrupted by three 0.5-hour periods of normoxia (i.e., 21% oxygen) per day or room air only (i.e., 21% oxygen) from post-natal day 4 (P4) to 14 (P14). Pups were then housed in room air. […] Flash electroretinograms were recorded at P29 to assess the retinal function. At P31, retinas were extracted, sectioned and stained with toluidine blue to measure the thicknesses of the different retinal layers."}, "[4]": {"conditions": "oral sildenafil; known; cited from earlier work"}, "[5]": {"tested_on": "Long-Evans rat pups (term neonatal HIE model)", "test": "Neurons count (NeuN) in cortex at P30", "format": "in vivo", "conditions": "HI; for neuronal number near the infarct boundary zone, median (IQR): ipsilateral cortex", "experimental": "Using the second slide prepared for each animal, an immunohistochemistry was performed to examine the number of mature neurons. Neurons were labeled with an anti-neuronal nuclei (NeuN) antibody (Millipore: MAB377, Billerica, Mass., USA) (dilution 1:500, incubation time 1 hour at room temperature) (Hendrickson M L et al., 2011). Sections then were incubated with the secondary antibody Alexa Fluor® 488 goat anti-rabbit IgG (Molecular Probes®, Life Technologies: A11034, Carlsbad, Calif., USA) (dilution 1:1000, incubation time 2 hours at 4° C.). These sections were rinsed with tris-buffered saline and cover slipped with Vectashield Mounting media containing 4,6-diamidino-2-phenylindole (DAPI) (Vector Laboratories: H1200, Burlingame, Calif., USA) to visualize cell nuclei. Cells co-labeled with NeuN and DAPI were identified as neurons. […] One investigator took pictures of the respective fields of view at 10× magnification."}}, "data": [{"smiles": "CCCc1nn(C)c2c(=O)[nH]c(-c3cc(S(=O)(=O)N4CCN(C)CC4)ccc3OCC)nc12", "note": "[sildenafil]", "values": [{"measurement": "incidence of animal deaths", "setting": "[1]; HI group, sildenafil 2 mg/kg", "value": "4/12"}, {"measurement": "incidence of animal deaths", "setting": "[1]; HI group, sildenafil 10 mg/kg", "value": "2/11"}, {"measurement": "incidence of animal deaths", "setting": "[1]; HI group, sildenafil 50 mg/kg", "value": "3/11"}, {"measurement": "incidence of animal deaths", "setting": "[1]; sham groups", "value": "no animals died"}, {"measurement": "endothelial cells number, median (IQR)", "setting": "[2]; sildenafil 2 mg/kg", "value": "230 (158; 273) endothelial cells/mm^2"}, {"measurement": "endothelial cells number, median (IQR)", "setting": "[2]; sildenafil 10 mg/kg (first mention, medium-dose)", "value": "196 (157; 225) endothelial cells/mm^2"}, {"measurement": "endothelial cells number, median (IQR)", "setting": "[2]; sildenafil 10 mg/kg as printed (second mention, third of low/medium/high)", "value": "193 (151; 217) endothelial cells/mm^2"}, {"measurement": "OPL thickness", "setting": "[3]", "value": "improved OPL thickness"}, {"measurement": "oral bioavailability", "setting": "[4]", "value": "good oral bioavailability"}, {"measurement": "neuronal number near the infarct boundary zone, median (IQR)", "setting": "[5]; high-dose sildenafil, p<0.001", "value": "1368 (1292; 1444) neurons/mm^2"}, {"measurement": "neuronal number in corresponding region of contralateral cortex, median (IQR)", "setting": "[5]; high-dose sildenafil, p<0.001", "value": "1019 (948; 1106) neurons/mm^2"}, {"measurement": "neuronal number in corresponding region of contralateral cortex, median (IQR)", "setting": "[5]; low-dose sildenafil, not significant", "value": "808 (586; 963) neurons/mm^2"}, {"measurement": "neuronal number in corresponding region of contralateral cortex, median (IQR)", "setting": "[5]; medium-dose sildenafil, p<0.001", "value": "999 (930; 1107) neurons/mm^2"}, {"measurement": "neuronal number near the infarct boundary zone, median (IQR)", "setting": "[5]; sildenafil 2 mg/kg, p<0.01", "value": "1118 (1069; 1238) neurons/mm^2"}, {"measurement": "neuronal number near the infarct boundary zone, median (IQR)", "setting": "[5]; sildenafil 10 mg/kg, p<0.001", "value": "1222 (1170; 1338) neurons/mm^2"}]}]}
